Test results from patent publication US8518892B2, “Methods to treat symptoms of pathophysiology related to body mass” (Board of Supervisors of Louisiana State University and …, priority 2005, dated 2013).

B1: leptin (protein, UniProt P41160 22-167, looked up)
Leptin: VPIQKVQDDTKTLIKTIVTRINDISHTQSVSAKQRVTGLDFIPGLHPILSLSKMDQTLAVYQQVLTSLPSQNVLQIANDLENLRDLLHLLAFSKSCSLPQTSGLQKPESLDGVLEASLYSTEVVALSRLQGSLQDILQQLDVSPEC
notes: adipocytokine, injected into Lep^ob/Lep^ob mice

How the values were obtained:
[1] = tested on: phosphorylation of Erk1 in HepG2 cells; experiment: Erk phosphorylation in HepG2 cells; assay type: cell-based; conditions: 1 μg/ml Enho1^34-76, 15 minutes after application
Procedure: FIG. 11B illustrates the increase in Erk phosphorylation in HepG2 hepatocytes 15 minutes after the application of the secreted protein Enho1 (Enho1^34-76; SEQ ID NO:10).
(§1) An experiment was conducted to test the use of a recombinant or synthetic forms of the short secreted polypeptide Enho1^34-76 (SEQ ID NO:10). A study was conducted where the response of adipocytes and hepatocytes, two potential sites of Enho1 action, to synthetic Enho1^34-76 was analyzed with changes in extracellular regulated kinase (ERK) as the measured response. ERK1/2 and p38α are important in the regulation of lipolysis and thermogenesis in adipocytes.
(§2) In addition, a shorter, second peptide was synthesized using amino acids 39 through 76 of SEQ ID NO:2, and called “Enho1^39-76” (SEQ ID NO:11).

[2] = tested on: phosphorylation of Erk1 in fully differentiated 3T3-L1 adipocytes; experiment: Erk phosphorylation in 3T3-L1 adipocytes; assay type: cell-based; conditions: 1 μg/ml Enho1^34-76, 15 minutes after application
Procedure: FIG. 11A illustrates the increase in Erk phosphorylation in 3T3-L1 adipocytes 15 minutes after the application of the secreted portion of protein Enho1 (Enho1^34-76; SEQ ID NO:10).
as §1, §2

Lep^ob/Lep^ob mice = experiment: Leptin treatment of Lep^ob/Lep^ob mice, hepatic AK009710 (Enho1) mRNA by RealTime PCR; assay type: in vivo, mouse; conditions: liver of Lep^ob/Lep^ob mice, 4 injections of 0.5 mg/g leptin over 2 days, vs saline
Procedure: FIG. 3C illustrates the amount of hepatic AK009710 mRNA expression (given as a percent of expression with saline) in leptin-deficient Lep^ob/Lep^ob mice injected 4 times over 2 days with either saline or leptin (0.5 mg/g).
Quantitative RealTime PCR confirmed the microarray data showing a tendency for a modest reduction in the expression of AK009710 in liver of Mc3rKO (FIG. 3A). […] (FIG. 3C). […] Moreover, AK009710 expression correlated negatively with fasting glucose in diet-induced obese B6 mice (n=13, R^2=0.67, P<0.001) (data not shown).
Oligonucleotide primers targeted to AK009710 mRNA were utilized to measure AK009710 gene expression in liver cDNA from various mouse models of obesity and insulin resistance. Sequences of primers were: sense 5-[…]-3′ (SEQ ID NO:3), antisense 5′-[…]-3′ (SEQ ID NO:4), probe 5′-6FAM-[…]-BHQ-3′ (SEQ ID NO:5). In agreement with the initial microarray result, AK009710 mRNA was down regulated in the liver of Mc3r−/− mice compared to WT mice (by 55%, p<0.05; FIG. 3A). Next was examined the AK009710 liver mRNA expression in two other models of obesity: Mc4r−/− mice and leptin-deficient Lep^ob/Lep^ob mice. AK009710 mRNA was expressed at approximately 10-fold lower levels in both of these models compared to wild-type mice (WT) (FIG. 3B). […]

Molecule | phosphorylation of Erk1 [1] | phosphorylation of Erk1 [2] | hepatic Enho1 (AK009710) mRNA expression (Lep^ob/Lep^ob mice)
Enho1^34-76: synthetic peptide corresponding to amino acids 34 through 76 of SEQ ID NO:2, the mouse protein; secreted portion of Enho1 (CHSRSADVDSLSESSPNSSPGPCPEKAPPPQKPSHEGSYLLQP; mus sp.) | robust increase | robust increase | –
B1 | – | – | significantly increased
